Assay results from ChEMBL document CHEMBL3272157, “Cephalosporin derivatives with 2- and 4-pyridone groups at carbon-3” (1979).
Values after ≈ are worked out from the molar mass of the structure shown. Active and inactive are the calls of the source. The rule behind the calls is not given here.

Tests used:
Staphylococcus aureus [1] = test: In vitro antibacterial activity against Staphylococcus aureus assessed as growth inhibition after 17 hrs by serial two-fold dilution technique; assay type: functional
Serratia marcescens = test: In vitro antibacterial activity against cephalosporins-resistant Serratia marcescens assessed as growth inhibition after 17 hrs by serial two-fold dilution technique; assay type: functional, organism-based
Streptococcus pyogenes [2] = test: In vivo antibacterial activity against Streptococcus pyogenes infected in sc dosed albino CD-1 mouse assessed as protection against bacterial infection by measuring host survival administered at 1 hr and 4 hrs after infection; assay type: functional
Salmonella [3] = test: In vivo antibacterial activity against Salmonella schottmuelleri infected in sc dosed albino CD-1 mouse assessed as protection against bacterial infection by measuring host survival administered at 1 hr and 4 hrs after infection; assay type: functional
Proteus mirabilis = test: In vitro antibacterial activity against Proteus mirabilis assessed as growth inhibition after 17 hrs by serial two-fold dilution technique; assay type: functional
Escherichia coli [4] = test: In vivo antibacterial activity against Escherichia coli infected in sc dosed albino CD-1 mouse assessed as protection against bacterial infection by measuring host survival administered at 1 hr and 4 hrs after infection; assay type: functional
Proteus vulgaris = test: In vitro antibacterial activity against cephalosporins-resistant Proteus vulgaris assessed as growth inhibition after 17 hrs by serial two-fold dilution technique; assay type: functional, organism-based
Salmonella [5] = test: In vitro antibacterial activity against Salmonella schottmuelleri assessed as growth inhibition after 17 hrs by serial two-fold dilution technique; assay type: functional
Pseudomonas aeruginosa = test: In vitro antibacterial activity against cephalosporins-resistant Pseudomonas aeruginosa assessed as growth inhibition after 17 hrs by serial two-fold dilution technique; assay type: functional, organism-based
Staphylococcus aureus [6] = test: In vitro antibacterial activity against benzylpenicillin-resistant Staphylococcus aureus assessed as growth inhibition after 17 hrs by serial two-fold dilution technique; assay type: functional
Klebsiella aerogenes = test: In vitro antibacterial activity against cephalosporins-resistant Enterobacter aerogenes assessed as growth inhibition after 17 hrs by serial two-fold dilution technique; assay type: functional, organism-based
Streptococcus pneumoniae = test: In vitro antibacterial activity against Streptococcus pneumoniae assessed as growth inhibition after 17 hrs by serial two-fold dilution technique; assay type: functional
Klebsiella pneumoniae = test: In vitro antibacterial activity against Klebsiella pneumoniae assessed as growth inhibition after 17 hrs by serial two-fold dilution technique; assay type: functional
[7] = test system: Staphylococcus epidermidis; test: In vitro antibacterial activity against benzylpenicillin-resistant Staphylococcus epidermidis assessed as growth inhibition after 17 hrs by serial two-fold dilution technique; assay type: functional
Providencia stuartii = test: In vitro antibacterial activity against cephalosporins-resistant Providencia stuartii assessed as growth inhibition after 17 hrs by serial two-fold dilution technique; assay type: functional, organism-based
Streptococcus pyogenes [8] = test: In vivo antibacterial activity against Streptococcus pyogenes infected in po dosed albino CD-1 mouse assessed as protection against bacterial infection by measuring host survival administered at 1 hr and 4 hrs after infection; assay type: functional
Escherichia coli [9] = test: In vitro antibacterial activity against Escherichia coli assessed as growth inhibition after 17 hrs by serial two-fold dilution technique; assay type: functional
Enterobacter cloacae = test: In vitro antibacterial activity against cephalosporins-resistant Enterobacter cloacae assessed as growth inhibition after 17 hrs by serial two-fold dilution technique; assay type: functional, organism-based
Streptococcus pyogenes [10] = test: In vitro antibacterial activity against Streptococcus pyogenes assessed as growth inhibition after 17 hrs by serial two-fold dilution technique; assay type: functional
[11] = test system: Streptococcus pasteurianus; test: In vitro antibacterial activity against Streptococcus pasteurianus assessed as growth inhibition after 17 hrs by serial two-fold dilution technique; assay type: functional
[12] = test system: Streptococcus pasteurianus; test: In vivo antibacterial activity against Streptococcus pasteurianus infected in sc dosed albino CD-1 mouse assessed as protection against bacterial infection by measuring host survival administered at 1 hr and 4 hrs after infection; assay type: functional

N[C@@H](C(=O)N[C@@H]1C(=O)N2C(C(=O)O)=C(Cn3ccc(=O)cc3)CS[C@H]12)c1ccccc1 was tested, and the MIC (Staphylococcus aureus [1]) was 3.1 µg/mL (≈ 7.04 µM), the “growth inhibition (GI)” value (Serratia marcescens) was “inactive” and the ED50 (Streptococcus pyogenes [2]) was greater than 0.5 mg/kg. For the same compound, the ED50 (Salmonella [3]) was 5 mg/kg, the MIC (Proteus mirabilis) was 50 µg/mL (≈ 114 µM) and the ED50 (Escherichia coli [4]) was 4.6 mg/kg. The “growth inhibition (GI)” value (Proteus vulgaris) was “inactive”, the MIC (Salmonella [5]) was 12.5 µg/mL (≈ 28.4 µM) and the “growth inhibition (GI)” value (Pseudomonas aeruginosa) was “inactive”. The MIC (Staphylococcus aureus [6]) was 50 µg/mL (≈ 114 µM), the “growth inhibition (GI)” value (Klebsiella aerogenes) was “inactive” and the MIC (Streptococcus pneumoniae) was 100 µg/mL (≈ 227 µM). The MIC (Klebsiella pneumoniae) was 12.5 µg/mL (≈ 28.4 µM), the MIC [7] was 25 µg/mL (≈ 56.8 µM) and the “growth inhibition (GI)” value (Providencia stuartii) was “inactive”. For the same compound, the ED50 (Streptococcus pyogenes [8]) was greater than 8 mg/kg, the MIC (Escherichia coli [9]) was 12.5 µg/mL (≈ 28.4 µM) and the “growth inhibition (GI)” value (Enterobacter cloacae) was “inactive”. It also gave an MIC (Streptococcus pyogenes [10]) of 1.6 µg/mL (≈ 3.63 µM) and an MIC [11] of 0.4 µg/mL (≈ 0.908 µM).

N[C@@H](C(=O)N[C@@H]1C(=O)N2C(C(=O)O)=C(Cn3ccccc3=O)CS[C@H]12)c1ccccc1 was tested, and the MIC (Staphylococcus aureus [1]) was 1.6 µg/mL (≈ 3.63 µM), the “growth inhibition (GI)” value (Serratia marcescens) was “inactive” and the ED50 (Streptococcus pyogenes [2]) was greater than 0.5 mg/kg. It also gave an ED50 (Salmonella [3]) of 10 mg/kg, an MIC (Proteus mirabilis) greater than 100 µg/mL and an ED50 (Escherichia coli [4]) of 8.4 mg/kg. For the same compound, the “growth inhibition (GI)” value (Proteus vulgaris) was “inactive”, the MIC (Salmonella [5]) was 12.5 µg/mL (≈ 28.4 µM) and the “growth inhibition (GI)” value (Pseudomonas aeruginosa) was “inactive”. For the same compound, the MIC (Staphylococcus aureus [6]) was 6.2 µg/mL (≈ 14.1 µM), the “growth inhibition (GI)” value (Klebsiella aerogenes) was “inactive” and the MIC (Streptococcus pneumoniae) was 50 µg/mL (≈ 114 µM). For the same compound, the MIC (Klebsiella pneumoniae) was 6.2 µg/mL (≈ 14.1 µM), the MIC [7] was 6.2 µg/mL (≈ 14.1 µM) and the “growth inhibition (GI)” value (Providencia stuartii) was “inactive”. For the same compound, the ED50 (Streptococcus pyogenes [8]) was greater than 8 mg/kg, the MIC (Escherichia coli [9]) was 25 µg/mL (≈ 56.8 µM) and the “growth inhibition (GI)” value (Enterobacter cloacae) was “inactive”. It also gave an ED50 [12] of 14 mg/kg, an MIC (Streptococcus pyogenes [10]) of 0.8 µg/mL (≈ 1.82 µM) and an MIC [11] of 0.2 µg/mL (≈ 0.454 µM).

CC1=C(C(=O)O)N2C(=O)[C@@H](NC(=O)[C@H](N)c3ccccc3)[C@H]2SC1 [CEPHALEXIN ANHYDROUS] showed an MIC (Staphylococcus aureus [1]) of 1.6 µg/mL (≈ 4.61 µM), an ED50 (Streptococcus pyogenes [2]) of 3.4 mg/kg and an ED50 (Salmonella [3]) of 8.2 mg/kg. For the same compound, the MIC (Proteus mirabilis) was 25 µg/mL (≈ 72 µM), the ED50 (Escherichia coli [4]) was 5.6 mg/kg and the MIC (Salmonella [5]) was 6.2 µg/mL (≈ 17.8 µM). It also gave an MIC (Staphylococcus aureus [6]) of 6.2 µg/mL (≈ 17.8 µM), an MIC (Streptococcus pneumoniae) greater than 100 µg/mL and an MIC (Klebsiella pneumoniae) of 3.1 µg/mL (≈ 8.92 µM). For the same compound, the MIC [7] was 12.5 µg/mL (≈ 36 µM), the ED50 (Streptococcus pyogenes [8]) was 1.2 mg/kg and the MIC (Escherichia coli [9]) was 6.2 µg/mL (≈ 17.8 µM). The ED50 [12] was 38.7 mg/kg, the MIC (Streptococcus pyogenes [10]) was 0.8 µg/mL (≈ 2.3 µM) and the MIC [11] was 1.6 µg/mL (≈ 4.61 µM).
